We go through one compound from ChEMBL document CHEMBL5537176, “Discovery of Novel Pyridazine-Tethered Sulfonamides as Carbonic Anhydrase II Inhibitors for the Management of Glaucoma” (J Med Chem, 2024).

Each structure is given as a SMILES string.

For the experiment, the target named is Carbonic anhydrase 9 (Homo sapiens, UniProt Q16790). As to the kind of experiment: Inhibition of human CA IX assessed as inhibition constant by stopped-flow CO2 hydrase assay method.

Broadly, the Ki is a dissociation constant, usually derived from enzyme kinetics or from competition with a known ligand. Consider `COc1cc2c(cc1OC)-c1c(c(C(=O)Nc3ccc(S(N)(=O)=O)cc3)nn1C)C2`, for which the Ki is 3.2 nM.
